Data as given in ChEMBL document CHEMBL4177736, “Monoterpene indole alkaloid azine derivatives as MDR reversal agents” (Bioorg Med Chem, 2018).
The source made the active and inactive calls. No cut-off for these calls is given here.

Experiments:
[1] = system: BHK-21; test: Cytotoxicity against wild type BHK21 cells assessed as reduction in cell viability at 20 uM after 72 hrs by MTT assay; assay type: cell-based, Mesocricetus auratus; conditions: hamster, bhk-21, 72 h
[2] = biological target: T1, MRP1 (Homo sapiens, UniProt P33527); test: Inhibition of MRP1 (unknown origin) expressed in HEK293FlpIN cells assessed as reduction in calcein-AM efflux at 20 uM incubated for 30 mins by flow cytometric analysis relative to control; assay type: cell-based; conditions: HEK293FlpIN cells expressing MRP1, probe calcein-AM
[3] = biological target: T2, BCRP (ABCG2) (Homo sapiens, UniProt Q9UNQ0); test: Inhibition of BCRP (unknown origin) expressed in HEK293 cells assessed as reduction in mitoxantrone efflux at 20 uM incubated for 30 mins by flow cytometric analysis relative to control; assay type: cell-based; conditions: HEK293 cells expressing BCRP, probe mitoxantrone
T2 sequence (Q9UNQ0 whole entry): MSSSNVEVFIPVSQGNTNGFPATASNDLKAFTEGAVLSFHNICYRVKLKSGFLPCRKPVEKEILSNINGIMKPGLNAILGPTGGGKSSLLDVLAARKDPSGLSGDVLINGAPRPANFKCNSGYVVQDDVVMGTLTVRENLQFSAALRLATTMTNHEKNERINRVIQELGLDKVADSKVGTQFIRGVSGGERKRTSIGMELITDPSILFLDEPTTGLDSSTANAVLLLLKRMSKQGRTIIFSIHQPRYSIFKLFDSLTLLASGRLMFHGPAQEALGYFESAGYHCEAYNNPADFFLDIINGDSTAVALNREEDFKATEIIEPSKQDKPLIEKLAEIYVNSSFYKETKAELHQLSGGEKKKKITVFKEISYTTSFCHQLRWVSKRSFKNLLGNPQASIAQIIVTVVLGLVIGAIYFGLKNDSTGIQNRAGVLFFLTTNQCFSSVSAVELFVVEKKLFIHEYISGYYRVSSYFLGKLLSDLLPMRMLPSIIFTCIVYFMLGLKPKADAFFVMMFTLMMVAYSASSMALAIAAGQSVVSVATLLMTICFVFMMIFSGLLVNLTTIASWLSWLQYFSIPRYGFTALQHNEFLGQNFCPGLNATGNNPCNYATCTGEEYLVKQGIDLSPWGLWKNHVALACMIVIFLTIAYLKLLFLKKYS

[4] = system: BHK-21; test: Cytotoxicity against MRP1-expressing BHK21 cells assessed as growth inhibition at 20 uM after 72 hrs by MTT assay; assay type: functional; conditions: Mesocricetus auratus; for inhibition of growth at 20 µM: BHK-21, 72 h, read-out: GI
[5] = Inhibition of P-gp (unknown origin) expressed in mouse NIH/3T3 cells assessed as reduction in rhodamine 123 efflux at 20 uM incubated for 30 mins by flow cytometric analysis relative to control; assay type: cell-based; conditions: Homo sapiens
[6] = system: NIH3T3; test: Cytotoxicity against MDR1-expressing mouse NIH/3T3 cells assessed as growth inhibition at 20 uM after 72 hrs by MTT assay; assay type: functional, cell-based
[7] = system: NIH3T3; test: Cytotoxicity against mouse NIH/3T3 cells assessed as reduction in cell viability at 20 uM after 72 hrs by MTT assay; assay type: cell-based; conditions: nih3t3, 72 h
[8] = system: BHK-21; test: Resistance ratio of EC50 for MRP1-expressing BHK21 cells to EC50 for wild type BHK21 cells; assay type: functional, Mesocricetus auratus
[9] = system: BHK-21; test: Cytotoxicity against MRP1-expressing BHK21 cells assessed as cell death after 72 hrs by MTT assay; assay type: functional, cell-based; conditions: Mesocricetus auratus, BHK-21, 72 h
[10] = biological target: T1, MRP1; test: Inhibition of MRP1 (unknown origin) expressed in BHK21 cells assessed as GSH efflux at 20 uM incubated for 3 hrs measured every 30 secs for 2 mins by GSH reductase enzyme based assay (reference value: 100%); assay type: cell-based; conditions: BHK21 cells expressing MRP1, probe GSH

T1 sequence (P33527 whole entry): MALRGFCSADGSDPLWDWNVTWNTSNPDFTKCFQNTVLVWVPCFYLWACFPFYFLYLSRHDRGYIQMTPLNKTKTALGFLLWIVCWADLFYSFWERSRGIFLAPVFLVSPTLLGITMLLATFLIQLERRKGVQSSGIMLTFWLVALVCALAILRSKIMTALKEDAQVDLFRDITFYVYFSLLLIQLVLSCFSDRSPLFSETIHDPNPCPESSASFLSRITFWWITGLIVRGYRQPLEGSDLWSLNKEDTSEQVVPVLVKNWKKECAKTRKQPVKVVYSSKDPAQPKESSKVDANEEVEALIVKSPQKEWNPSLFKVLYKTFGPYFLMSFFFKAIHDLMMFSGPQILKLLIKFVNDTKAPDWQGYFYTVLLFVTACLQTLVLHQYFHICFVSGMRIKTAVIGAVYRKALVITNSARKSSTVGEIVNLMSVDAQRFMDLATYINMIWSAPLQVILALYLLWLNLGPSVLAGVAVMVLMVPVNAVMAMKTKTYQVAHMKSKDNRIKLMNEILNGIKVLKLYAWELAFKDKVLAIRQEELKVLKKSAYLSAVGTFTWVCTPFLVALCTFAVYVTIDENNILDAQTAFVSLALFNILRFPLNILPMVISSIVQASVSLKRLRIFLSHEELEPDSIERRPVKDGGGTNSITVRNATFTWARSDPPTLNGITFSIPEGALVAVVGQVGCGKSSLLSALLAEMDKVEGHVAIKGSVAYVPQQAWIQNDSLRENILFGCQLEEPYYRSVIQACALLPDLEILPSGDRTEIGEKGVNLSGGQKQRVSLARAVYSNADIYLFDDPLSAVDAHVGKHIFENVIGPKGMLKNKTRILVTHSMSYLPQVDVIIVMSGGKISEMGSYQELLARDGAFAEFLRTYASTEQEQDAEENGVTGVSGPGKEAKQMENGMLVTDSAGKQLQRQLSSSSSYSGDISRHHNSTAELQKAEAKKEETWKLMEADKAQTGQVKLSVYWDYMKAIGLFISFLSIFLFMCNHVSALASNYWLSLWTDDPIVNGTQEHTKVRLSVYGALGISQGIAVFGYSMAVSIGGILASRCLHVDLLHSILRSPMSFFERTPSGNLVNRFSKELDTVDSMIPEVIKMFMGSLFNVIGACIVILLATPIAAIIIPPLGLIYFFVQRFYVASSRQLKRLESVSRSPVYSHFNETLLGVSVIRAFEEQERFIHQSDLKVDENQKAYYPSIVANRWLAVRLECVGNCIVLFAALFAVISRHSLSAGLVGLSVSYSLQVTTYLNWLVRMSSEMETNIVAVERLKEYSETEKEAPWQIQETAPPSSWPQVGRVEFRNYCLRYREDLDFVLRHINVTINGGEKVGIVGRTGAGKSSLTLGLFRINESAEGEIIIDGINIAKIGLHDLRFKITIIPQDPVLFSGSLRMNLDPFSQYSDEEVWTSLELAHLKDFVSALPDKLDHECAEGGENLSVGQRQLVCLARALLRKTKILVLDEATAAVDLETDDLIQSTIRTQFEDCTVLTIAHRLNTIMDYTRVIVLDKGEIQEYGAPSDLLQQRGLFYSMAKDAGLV

| SMILES | inhibition at 0.5 h, 20 µM [2] [%] | inhibition at 3 h, 20 µM [10] [%] | Activity [1] | inhibition at 0.5 h, 20 µM [3] [%] | inhibition of growth at 20 µM [4] [%] | inhibition [5] [%] | growth inhibition (GI) [6] | Activity [7] | Ratio EC50 [8] | EC50 [9] [µM] | growth inhibition (GI) [4] |
| --- | --- | --- | --- | --- | --- | --- | --- | --- | --- | --- | --- |
| CC[C@@H]1CN(C)[C@H]2Cc3c([nH]c4ccccc34)/C(=N/N=C\C3CCCC3)C[C@H]1[C@H]2C(=O)OC | 19.1 | – | – | -2.3 | – | 2.7 | Active | Non-Toxic | – | – | – |
| CCC(/C=N\N=C1/C[C@@H]2[C@@H](CC)CN(C)[C@@H](Cc3c1[nH]c1ccccc31)[C@@H]2C(=O)OC)CC | 30.3 | 63 to 75 | Non-Toxic | 8.2 | – | 26.5 | Active | Non-Toxic | 0.63 | 18 | Active |
| CC[C@@H]1CN(C)[C@H]2Cc3c([nH]c4ccccc34)/C(=N/N=C\c3cccc(Cl)c3)C[C@H]1[C@H]2C(=O)OC | 10.8 | – | Non-Toxic | -1.3 | 90 to 98 | 20.2 | Active | Non-Toxic | – | – | – |
| CC[C@@H]1CN(C)[C@H]2Cc3c([nH]c4ccccc34)/C(=N/N=C\c3ccccc3[N+](=O)[O-])C[C@H]1[C@H]2C(=O)OC | 14.6 | – | Non-Toxic | -0.1 | 90 to 98 | 42.9 | Active | Non-Toxic | – | – | – |
| CC[C@H]1CN(C)[C@H]2Cc3c([nH]c4ccccc34)/C(=N/N=C\c3cccc(Cl)c3)C[C@H]1[C@H]2C(=O)OC | 13.6 | – | Non-Toxic | -2.4 | 90 to 98 | 21.4 | Active | Non-Toxic | – | – | – |
| CC[C@H]1CN(C)[C@H]2Cc3c([nH]c4ccccc34)/C(=N/N=C\C3CCCC3)C[C@H]1[C@H]2C(=O)OC | 35.5 | – | – | 0.8 | – | 30.3 | Active | Non-Toxic | – | – | – |
| CC[C@@H]1CN(C)[C@H]2Cc3c([nH]c4ccccc34)/C(=N/N=C\c3ccc[nH]3)C[C@H]1[C@H]2C(=O)OC | 15.2 | – | – | 3.7 | – | 4.5 | Active | Non-Toxic | – | – | – |

The next lines start with results.

| inhibition at 0.5 h, 20 µM [2] [%] | inhibition at 3 h, 20 µM [10] [%] | SMILES | Activity [1] | inhibition at 0.5 h, 20 µM [3] [%] | inhibition of growth at 20 µM [4] [%] | inhibition [5] [%] | growth inhibition (GI) [6] | Activity [7] | Ratio EC50 [8] | EC50 [9] [µM] | growth inhibition (GI) [4] |
| --- | --- | --- | --- | --- | --- | --- | --- | --- | --- | --- | --- |
| 12.8 | – | CC[C@H]1CN(C)[C@H]2Cc3c([nH]c4ccccc34)/C(=N/N=C\c3cccc(Br)c3)C[C@H]1[C@H]2C(=O)OC | Non-Toxic | -3.1 | 90 to 98 | 28.6 | Active | Non-Toxic | – | – | – |
| 15.9 | 63 to 75 | CC[C@H]1CN(C)[C@H]2Cc3c([nH]c4ccccc34)/C(=N/N=C\C(C)(C)C)C[C@H]1[C@H]2C(=O)OC | Non-Toxic | 2.4 | – | 10.3 | Active | Non-Toxic | 0.74 | 32 | Active |
| 23.4 | – | CC[C@@H]1CN(C)[C@H]2Cc3c([nH]c4ccccc34)/C(=N/N=C\c3ccc([N+](=O)[O-])cc3)C[C@H]1[C@H]2C(=O)OC | Non-Toxic | 2.9 | > 90 | 14.7 | Active | Non-Toxic | – | – | – |
| 2.5 | 63 to 75 | CC[C@@H]1CN(C)[C@H]2Cc3c([nH]c4ccccc34)/C(=N/N=C\C(C)(C)C)C[C@H]1[C@H]2C(=O)OC | Non-Toxic | 1.3 | – | 3.1 | Active | Non-Toxic | 0.83 | 57 | Active |
| 26.4 | 63 to 75 | CCC(/C=N\N=C1/C[C@@H]2[C@H](CC)CN(C)[C@@H](Cc3c1[nH]c1ccccc31)[C@@H]2C(=O)OC)CC | Non-Toxic | 0.9 | – | 2.8 | Active | Non-Toxic | 0.81 | 27.5 | Active |
| 20.3 | – | CC[C@H]1CN(C)[C@H]2Cc3c([nH]c4ccccc34)/C(=N/N=C\C=C\c3ccccc3)C[C@H]1[C@H]2C(=O)OC | Non-Toxic | -0.3 | 90 to 98 | 45.8 | Active | Non-Toxic | – | – | – |
| 47.5 | – | CC[C@H]1CN(C)[C@H]2Cc3c([nH]c4ccccc34)/C(=N/N=C\c3ccc([N+](=O)[O-])cc3)C[C@H]1[C@H]2C(=O)OC | Non-Toxic | 2.2 | 90 to 98 | 7.5 | Active | Non-Toxic | – | – | – |
| 29.5 | – | CC[C@H]1CN(C)[C@H]2Cc3c([nH]c4ccccc34)/C(=N/N=C\c3ccccc3[N+](=O)[O-])C[C@H]1[C@H]2C(=O)OC | – | 4.5 | – | 57.4 | Active | Non-Toxic | – | – | – |
| 56 | 63 to 75 | CC[C@H]1CN(C)[C@H]2Cc3c([nH]c4ccccc34)/C(=N/N=C\c3ccc[nH]3)C[C@H]1[C@H]2C(=O)OC | Non-Toxic | 13.5 | > 70 | 27.6 | Active | Non-Toxic | – | – | – |
